Test results: article PMC12123601, “Light-Induced, Lysine-Targeting Irreversible Covalent Inhibition of the Human Oxygen Sensing Hydroxylase Factor Inhibiting HIF (FIH)” (Journal of the American Chemical Society, 2025)

Assays:
[1] = target: FIH (Homo sapiens, UniProt Q9NWT6); test: Time-dependent cellular thermal shift assay (CETSA) in Hep3B cells, FIH; type: cell-based; parameters: endogenous in cells; host or cells: Hep3B (SCSP-5045); settings: for ΔTm at 50 µM: Hep3B
Description: To investigate potential cellular target engagement of NBA-ZG-2291 with FIH, we performed a time-dependent cellular thermal shift assay (CETSA) using Hep3B cells. The results imply that, after 30 min of light activation (365 nm, 16 W), NBA-ZG-2291 effectively stabilizes FIH with a ΔT m of about 9 °C after incubation for 12–48 h (Figure A), indicating sustained engagement with FIH. […] We also performed Western blotting to examine the protein levels of both HIF-1α and HIF-2α in control and NBA-ZG-2291-treated Hep3B cells.
(§1) 5 NBA-ZG-2991 sustainably engages with FIH and regulates the expression of FIH-dependent HIF target gene EGLN3 in Hep3B cells. (A) The CETSA assay was carried out with Hep3B cells grown in the presence of NBA-ZG-2291 (50 μM) for 12–48 h after 30 min of light activation (365 nm, 16 W). The intensity of the bands for grayscale analysis was referenced to the starting temperature (37 °C). α-Actinin was the sample loading control. n = 2; mean ± SD. […] (E) Correlation heatmap of the NBA-ZG-2291-treated group and the siFIH group by RNA-sequencing analysis. […] The relative fold change with respect to DMSO treated sample is shown (with normalization to HPRT gene levels). Mean ± SEM; n = 3. (G) TG level of NBA-ZG-2291-treated 3T3-L1-derived adipocytes. Mean ± SEM; n = 3. (H) Representative Oil Red O-stained images of the control, ZG-2291-treated, and NBA-ZG-2291-treated 3T3-L1-derived adipocytes. Scale Bar, 30 μm. P values were analyzed by two-way ANOVA comparing with the vehicle/control group (*, P < 0.05; **, P < 0.01; ***, P < 0.001, ****, P < 0.0001). See Methods (Quantitative PCR Analysis of Gene Expression) for assay details. […]
Data acquisition was carried out in Full MS mode, positive ion detection, the acquisition time was 10 min, and the scanning range of the mass-to-charge ratio was 400-2000 m/z.
3.5 Dihedral angle scan analysis
Dihedral angle scans were performed using the Gaussion 16 suite11. The original dihedral angles of the isoxazol-5-yl pyridine fragment were set to 0° via Gaussian View 6.0.16 for dihedral scanning from 0° to 360° in 1° increments at the B3LPY-D3(BJ)/6-31+G(d) level of theory. The resulting 360 conformations and the single-point energy for each conformation were extracted.
3.6 Molecular dynamics (MD) simulations
The process of customizing non-standard residues (NBA-ZG-2291 modified Lys106) in the amber14sb force field involved the following steps: First, the molecular structure of NBA-ZG-2291 was obtained and its topology was generated. […]
The RESP charges were fitted using Multiwfn, wherein the optimized structure and ESP data were inputted to perform the restrained electrostatic potential fitting. The obtained RESP charges were subsequently incorporated into the gaff topology generated by Multwfn. […]

[2] = system: 3T3-L1-derived adipocytes; test: Lipid homeostasis in 3T3-L1-derived adipocytes (TG level, Oil Red O staining); type: cell-based
Description: as §1

Chain of FIH (Q9NWT6 whole entry): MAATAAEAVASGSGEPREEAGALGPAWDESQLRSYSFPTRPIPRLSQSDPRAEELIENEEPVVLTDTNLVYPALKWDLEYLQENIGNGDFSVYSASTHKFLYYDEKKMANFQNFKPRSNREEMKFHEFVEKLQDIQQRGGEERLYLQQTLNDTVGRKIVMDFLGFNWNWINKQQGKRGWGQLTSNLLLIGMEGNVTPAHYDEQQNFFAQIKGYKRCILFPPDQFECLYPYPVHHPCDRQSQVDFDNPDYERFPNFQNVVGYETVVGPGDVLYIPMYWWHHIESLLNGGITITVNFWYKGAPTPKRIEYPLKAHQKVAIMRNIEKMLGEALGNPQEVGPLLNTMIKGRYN

- ΔTm at 50 µM ([1]; incubation 12 h after 30 min light activation (365 nm, 16 W)): 8.87 °C
- ΔTm at 50 µM ([1]; incubation 24 h after 30 min light activation (365 nm, 16 W)): 9.28 °C
- ΔTm at 50 µM ([1]; incubation 48 h after 30 min light activation (365 nm, 16 W)): 8.86 °C
- FIH: ΔTm ([1]; incubation for 12–48 h after 30 min light activation (365 nm, 16 W)): about 9 °C
SMILES: O=C(O)CNC(=O)c1ncc(-c2cc(-c3ccc(CO)c([N+](=O)[O-])c3)no2)cc1O [NBA-ZG-2291]
- Cellular triglyceride (TG) levels [2]: significantly improved cellular triglyceride levels
- Lipid droplet accumulation (Oil Red O staining) ([2]; compared with control cells): reduced lipid droplet accumulation
